Test results: patent US11135234B2, “Effective aminoglycoside antibiotic for multidrug-resistant bacteria” (MICROBIAL CHEMISTRY RESEARCH FOUNDATION, priority 2015, dated 2021)
≈ marks a conversion by molar mass, not a printed value.

Assays:
[1] = system: A. baumannii ATCC BAA-1710; assay: MIC, agar plate dilution method, A. baumannii ATCC BAA-1710; format: cell-based, Acinetobacter baumannii; settings: for minimal inhibitory concentration (MIC): A. baumannii ATCC BAA-1710, MDRA; for MIC: Acinetobacter baumannii, ATCCBAA1710, A. baumannii ATCC BAA-1710, MDRA, read-out: minimal inhibitory concentration (MIC)
Experimental: (§1) As for the representative compounds of a new aminoglycoside antibiotic of the present invention described in Examples, the minimal inhibitory concentration (MIC, μg/mL) was measured for various assay strains of bacteria using an agar plate dilution method in accordance with the method described in the Japan Society of Chemotherapy.

S. marcescens GN6944 = assay: MIC, agar plate dilution method, S. marcescens GN6944; format: cell-based, Serratia marcescens; settings: S. marcescens GN6944, GM-resistant; for MIC: Serratia marcescens, read-out: minimal inhibitory concentration (MIC)
Experimental: as §1

E. faecium ATCC19434 = assay: MIC, agar plate dilution method, E. faecium ATCC19434; format: cell-based, Enterococcus faecium; settings: for minimal inhibitory concentration (MIC): E. faecium ATCC19434; for MIC: Enterococcus faecium, ATCC19434, E. faecium ATCC19434, read-out: minimal inhibitory concentration (MIC)
Experimental: as §1

P. aeruginosa PAO1/GN315 = assay: MIC, agar plate dilution method, P. aeruginosa PAO1/GN315; format: cell-based, Pseudomonas aeruginosa; settings: for minimal inhibitory concentration (MIC): P. aeruginosa PAO1/GN315, AMK-resistant; for MIC: Pseudomonas aeruginosa, read-out: minimal inhibitory concentration (MIC), P. aeruginosa PAO1/GN315, AMK-resistant
Experimental: as §1

P. aeruginosa MSC17707 = assay: MIC, agar plate dilution method, P. aeruginosa MSC17707; format: cell-based, Pseudomonas aeruginosa; settings: for minimal inhibitory concentration (MIC): P. aeruginosa MSC17707, AMK-resistant; for MIC: Pseudomonas aeruginosa, MSC17707, P. aeruginosa MSC17707, AMK-resistant, read-out: minimal inhibitory concentration (MIC)
Experimental: as §1

S. aureus MF490 = assay: MIC, agar plate dilution method, S. aureus MF490; format: cell-based, Staphylococcus aureus; settings: for minimal inhibitory concentration (MIC): S. aureus MF490, MRSA; for MIC: Staphylococcus aureus, MRSA, read-out: minimal inhibitory concentration (MIC)
Experimental: as §1

S. aureus RN4220 = assay: MIC, agar plate dilution method, S. aureus RN4220; format: cell-based, Staphylococcus aureus; settings: for minimal inhibitory concentration (MIC): S. aureus RN4220, Sensitive bacterium; for MIC: Staphylococcus aureus, RN4220, S. aureus RN4220, Sensitive bacterium, read-out: minimal inhibitory concentration (MIC)
Experimental: as §1

[2] = system: K. pneumoniae ATCC BAA-1705; assay: MIC, agar plate dilution method, K. pneumoniae ATCC BAA-1705; format: cell-based, Klebsiella pneumoniae; settings: for minimal inhibitory concentration (MIC): K. pneumoniae ATCC BAA-1705, KPC-producing strain; for MIC: Klebsiella pneumoniae, ATCCBAA1705, K. pneumoniae ATCC BAA-1705, KPC-producing strain, read-out: minimal inhibitory concentration (MIC)
Experimental: as §1

[3] = system: K. pneumoniae ATCC BAA-2146; assay: MIC, agar plate dilution method, K. pneumoniae ATCC BAA-2146; format: cell-based, Klebsiella pneumoniae; settings: for minimal inhibitory concentration (MIC): K. pneumoniae ATCC BAA-2146, NDM-producing strain; for MIC: Klebsiella pneumoniae, ATCCBAA2146, K. pneumoniae ATCC BAA-2146, NDM-producing strain, read-out: minimal inhibitory concentration (MIC)
Experimental: as §1

P. aeruginosa MSC01035 = assay: MIC, agar plate dilution method, P. aeruginosa MSC01035; format: cell-based, Pseudomonas aeruginosa; settings: P. aeruginosa MSC01035, ABK-resistant; for MIC: Pseudomonas aeruginosa, read-out: minimal inhibitory concentration (MIC)
Experimental: as §1

E. coli JM109/pMW218 = assay: MIC, agar plate dilution method, E. coli JM109/pMW218; format: cell-based, Escherichia coli; settings: for minimal inhibitory concentration (MIC): E. coli JM109/pMW218, Sensitive bacterium; for MIC: Escherichia coli, JM109/PMW218, E. coli JM109/pMW218, Sensitive bacterium, read-out: minimal inhibitory concentration (MIC)
Experimental: as §1

P. aeruginosa PAO1 = assay: MIC, agar plate dilution method, P. aeruginosa PAO1; format: cell-based, Pseudomonas aeruginosa; settings: for minimal inhibitory concentration (MIC): P. aeruginosa PAO1, Sensitive bacterium; for MIC: Pseudomonas aeruginosa, PAO1, P. aeruginosa PAO1, Sensitive bacterium, read-out: minimal inhibitory concentration (MIC)
Experimental: as §1

S. marcescens TH-0447 = assay: MIC, agar plate dilution method, S. marcescens TH-0447; format: cell-based, Serratia marcescens; settings: for minimal inhibitory concentration (MIC): S. marcescens TH-0447, AMK-resistant; for MIC: Serratia marcescens, TH0447, S. marcescens TH-0447, AMK-resistant, read-out: minimal inhibitory concentration (MIC)
Experimental: as §1

S. aureus RN4220/pMS520 = assay: MIC, agar plate dilution method, S. aureus RN4220/pMS520; format: cell-based, Staphylococcus aureus; settings: for minimal inhibitory concentration (MIC): S. aureus RN4220/pMS520, MRSA; for MIC: Staphylococcus aureus, MRSA, read-out: minimal inhibitory concentration (MIC), S. aureus RN4220/pMS520, MRSA
Experimental: as §1

Row | SMILES | minimal inhibitory concentration (MIC) [1] | minimal inhibitory concentration (MIC) (S. marcescens GN6944) | minimal inhibitory concentration (MIC) (E. faecium ATCC19434) | minimal inhibitory concentration (MIC) (P. aeruginosa PAO1/GN315) | minimal inhibitory concentration (MIC) (P. aeruginosa MSC17707) | minimal inhibitory concentration (MIC) (S. aureus MF490) | minimal inhibitory concentration (MIC) (S. aureus RN4220) | minimal inhibitory concentration (MIC) [2] | minimal inhibitory concentration (MIC) [3] | minimal inhibitory concentration (MIC) (P. aeruginosa MSC01035) | minimal inhibitory concentration (MIC) (E. coli JM109/pMW218) | minimal inhibitory concentration (MIC) (P. aeruginosa PAO1) | minimal inhibitory concentration (MIC) (S. marcescens TH-0447) | minimal inhibitory concentration (MIC) (S. aureus RN4220/pMS520) | MIC [1] | MIC (S. marcescens GN6944) | MIC (E. faecium ATCC19434) | MIC (P. aeruginosa PAO1/GN315) | MIC (P. aeruginosa MSC17707) | MIC (S. aureus MF490) | also measured
1 | CNC1C(O[C@H]2OC(CO)[C@@H](NC3CNC3)[C@H](O)C2O)O[C@H]2CC(N)[C@@H](O[C@@H]3C(N)C[C@@H](N)C(O)[C@H]3O)OC2C1O (some centres unmarked) [Compound A4-h, 4″-N-(azetidin-3-yl)apramycin] | 16 µg/mL (≈ 26.9 µM) | 8 µg/mL (≈ 13.5 µM) | 32 µg/mL (≈ 53.8 µM) | 16 µg/mL (≈ 26.9 µM) | 16 µg/mL (≈ 26.9 µM) | 16 µg/mL (≈ 26.9 µM) | 4 µg/mL (≈ 6.73 µM) | 4 µg/mL (≈ 6.73 µM) | 2 µg/mL (≈ 3.36 µM) | 16 µg/mL (≈ 26.9 µM) | 2 µg/mL (≈ 3.36 µM) | 8 µg/mL (≈ 13.5 µM) | 16 µg/mL (≈ 26.9 µM) | 4 µg/mL (≈ 6.73 µM) |  |  |  |  |  |  | 
2 | CNC1C(O[C@H]2OC(CO)[C@@H](NC3CN(C)C3)[C@H](O)C2O)O[C@H]2CC(N)[C@@H](O[C@@H]3C(N)C[C@@H](N)C(O)[C@H]3O)OC2C1O (some centres unmarked) [Compound A4-i, 4″-N-(1-methylazetidin-3-yl)apramycin] |  |  |  |  |  |  |  |  |  |  |  |  |  |  | 16 µg/mL (≈ 26.3 µM) | 8 µg/mL (≈ 13.1 µM) | 32 µg/mL (≈ 52.6 µM) | 16 µg/mL (≈ 26.3 µM) | 16 µg/mL (≈ 26.3 µM) | 16 µg/mL (≈ 26.3 µM) | MIC (S. aureus RN4220): 4 µg/mL (≈ 6.57 µM); MIC [2]: 2 µg/mL (≈ 3.29 µM); MIC [3]: 2 µg/mL (≈ 3.29 µM); MIC (P. aeruginosa MSC01035): 16 µg/mL (≈ 26.3 µM); MIC (E. coli JM109/pMW218): 1 µg/mL (≈ 1.64 µM); MIC (P. aeruginosa PAO1): 8 µg/mL (≈ 13.1 µM); MIC (S. marcescens TH-0447): 16 µg/mL (≈ 26.3 µM); MIC (S. aureus RN4220/pMS520): 4 µg/mL (≈ 6.57 µM)
3 | CNC1C(O[C@H]2OC(CO)[C@@H](NC(=N)N)[C@H](O)C2O)O[C@H]2CC(N)[C@@H](O[C@@H]3C(N)C[C@@H](N)C(O)[C@H]3O)OC2C1O (some centres unmarked) [Compound A4-j, 4″-deamino-4″-guanidinoapramycin] |  |  |  |  |  |  |  |  |  |  |  |  |  |  | 8 µg/mL (≈ 13.8 µM) | 4 µg/mL (≈ 6.88 µM) | 16 µg/mL (≈ 27.5 µM) | 8 µg/mL (≈ 13.8 µM) | 8 µg/mL (≈ 13.8 µM) | 8 µg/mL (≈ 13.8 µM) | MIC (S. aureus RN4220): 2 µg/mL (≈ 3.44 µM); MIC [2]: 2 µg/mL (≈ 3.44 µM); MIC [3]: 1 µg/mL (≈ 1.72 µM); MIC (P. aeruginosa MSC01035): 8 µg/mL (≈ 13.8 µM); MIC (E. coli JM109/pMW218): 1 µg/mL (≈ 1.72 µM); MIC (P. aeruginosa PAO1): 4 µg/mL (≈ 6.88 µM); MIC (S. marcescens TH-0447): 8 µg/mL (≈ 13.8 µM); MIC (S. aureus RN4220/pMS520): 2 µg/mL (≈ 3.44 µM)
4 | CNC1C(OC2OC(CO)C(NCCNC(=N)N)C(O)C2O)OC2CC(N)C(OC3C(N)CC(N)C(O)C3O)OC2C1O (centres unmarked) [Compound A4-k, 4″-N-guanidinoethylapramycin] | 8 µg/mL (≈ 12.8 µM) | 4 µg/mL (≈ 6.4 µM) | 16 µg/mL (≈ 25.6 µM) | 8 µg/mL (≈ 12.8 µM) | 16 µg/mL (≈ 25.6 µM) | 16 µg/mL (≈ 25.6 µM) | 2 µg/mL (≈ 3.2 µM) | 1 µg/mL (≈ 1.6 µM) | 1 µg/mL (≈ 1.6 µM) | 16 µg/mL (≈ 25.6 µM) | 0.5 µg/mL (≈ 0.8 µM) | 8 µg/mL (≈ 12.8 µM) | 8 µg/mL (≈ 12.8 µM) | 2 µg/mL (≈ 3.2 µM) |  |  |  |  |  |  | 
